Source: PubChem BioAssay (NCI)
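Interpolation was linear, between the two tested concentrations surrounding the appropriate level; five concentrations were tested over 48 hours in 96-well plates. Abbreviation: GI50, concentration required for 50% inhibition of growth. TGI: concentration producing complete growth inhibition.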

Tests used:
Assay in all cases: growth of human tumour cells (NCI), 48 h
SK-MEL-5 melanoma = tested on: SK-MEL-5 melanoma
A498 renal = tested on: A498 renal
OVCAR-4 ovarian = tested on: OVCAR-4 ovarian
RPMI-8226 leukemia = tested on: RPMI-8226 leukemia
UACC-62 melanoma = tested on: UACC-62 melanoma
MALME-3M melanoma = tested on: MALME-3M melanoma
OVCAR-3 ovarian = tested on: OVCAR-3 ovarian
A549 NSCLC = tested on: A549 NSCLC
SK-MEL-2 melanoma = tested on: SK-MEL-2 melanoma
DU-145 prostate = tested on: DU-145 prostate
TK-10 renal = tested on: TK-10 renal
KM12 colon = tested on: KM12 colon
RXF 393 renal = tested on: RXF 393 renal
EKVX NSCLC = tested on: EKVX NSCLC
CCRF-CEM leukemia = tested on: CCRF-CEM leukemia
SNB-19 CNS = tested on: SNB-19 CNS
MCF7 breast = tested on: MCF7 breast
NCI-H23 lung = tested on: NCI-H23 lung
SK-OV-3 ovarian = tested on: SK-OV-3 ovarian
COLO 205 colon = tested on: COLO 205 colon
HOP-92 NSCLC = tested on: HOP-92 NSCLC
NCI-H226 lung = tested on: NCI-H226 lung
MDA-MB-468 breast = tested on: MDA-MB-468 breast
HS 578T breast = tested on: HS 578T breast
LOX IMVI melanoma = tested on: LOX IMVI melanoma
UO-31 renal = tested on: UO-31 renal
HCT-15 colon = tested on: HCT-15 colon
SK-MEL-28 melanoma = tested on: SK-MEL-28 melanoma
SF-268 CNS = tested on: SF-268 CNS
HT29 colon = tested on: HT29 colon
MDA-MB-231 breast = tested on: MDA-MB-231 breast
M14 melanoma = tested on: M14 melanoma
PC-3 prostate = tested on: PC-3 prostate
NCI-H460 lung = tested on: NCI-H460 lung
MDA-MB-435 = tested on: MDA-MB-435
UACC-257 melanoma = tested on: UACC-257 melanoma
ACHN renal = tested on: ACHN renal
NCI-H522 lung = tested on: NCI-H522 lung
786-0 renal = tested on: 786-0 renal
SR leukemia = tested on: SR leukemia
HCC-2998 colon = tested on: HCC-2998 colon
OVCAR-5 ovarian = tested on: OVCAR-5 ovarian
K-562 leukemia = tested on: K-562 leukemia
SF-295 CNS = tested on: SF-295 CNS
OVCAR-8 ovarian = tested on: OVCAR-8 ovarian
NCI/ADR-RES ovarian = tested on: NCI/ADR-RES ovarian
SF-539 CNS = tested on: SF-539 CNS
BT-549 breast = tested on: BT-549 breast
T-47D breast = tested on: T-47D breast
SN12C renal = tested on: SN12C renal
IGROV1 ovarian = tested on: IGROV1 ovarian
CAKI-1 renal = tested on: CAKI-1 renal
MOLT-4 leukemia = tested on: MOLT-4 leukemia
HOP-62 NSCLC = tested on: HOP-62 NSCLC

COc1ccc(C(=O)/C=C/c2cc3c(cc2Br)OCO3)cc1S(N)(=O)=O
GI50 (SK-MEL-5 melanoma): 9.12 µM | TGI (SK-MEL-5 melanoma): 29.2 µM | GI50 (A498 renal): 15.2 µM | TGI (A498 renal): 28.8 µM | GI50 (OVCAR-4 ovarian): 3.72 µM | TGI (OVCAR-4 ovarian): 32.3 µM | GI50 (RPMI-8226 leukemia): 2870 nM | TGI (RPMI-8226 leukemia): 10.6 µM | GI50 (UACC-62 melanoma): 4.07 µM | TGI (UACC-62 melanoma): 23.5 µM | GI50 (MALME-3M melanoma): 11.6 µM | TGI (MALME-3M melanoma): 27 µM | GI50 (OVCAR-3 ovarian): 2550 nM | TGI (OVCAR-3 ovarian): 6.62 µM | GI50 (A549 NSCLC): 2700 nM | TGI (A549 NSCLC): 10.5 µM | GI50 (SK-MEL-2 melanoma): 14.7 µM | TGI (SK-MEL-2 melanoma): 30.2 µM | GI50 (DU-145 prostate): 3.71 µM | TGI (DU-145 prostate): 12.7 µM | GI50 (TK-10 renal): 14.6 µM | TGI (TK-10 renal): 36.3 µM | GI50 (KM12 colon): 2450 nM | TGI (KM12 colon): 6 µM | GI50 (RXF 393 renal): 2770 nM | TGI (RXF 393 renal): 17.5 µM | GI50 (EKVX NSCLC): 9.71 µM | TGI (EKVX NSCLC): 42.9 µM | GI50 (CCRF-CEM leukemia): 6.67 µM | TGI (CCRF-CEM leukemia): 38.1 µM | GI50 (SNB-19 CNS): 5.77 µM | TGI (SNB-19 CNS): 29.7 µM | GI50 (MCF7 breast): 3.84 µM | TGI (MCF7 breast): 19.5 µM | GI50 (NCI-H23 lung): 4.24 µM | TGI (NCI-H23 lung): 28 µM | GI50 (SK-OV-3 ovarian): 14.4 µM | TGI (SK-OV-3 ovarian): 34.1 µM | GI50 (COLO 205 colon): 5.39 µM | TGI (COLO 205 colon): > 100 µM | GI50 (HOP-92 NSCLC): 5.46 µM | TGI (HOP-92 NSCLC): 23.5 µM | GI50 (NCI-H226 lung): 2800 nM | TGI (NCI-H226 lung): 10.9 µM | GI50 (MDA-MB-468 breast): 4.98 µM | TGI (MDA-MB-468 breast): 24.8 µM | GI50 (HS 578T breast): 20.8 µM | TGI (HS 578T breast): > 100 µM | GI50 (LOX IMVI melanoma): 1680 nM | TGI (LOX IMVI melanoma): 3.16 µM | GI50 (UO-31 renal): 2640 nM | TGI (UO-31 renal): 12.8 µM | GI50 (HCT-15 colon): 1780 nM | TGI (HCT-15 colon): 3.79 µM | GI50 (SK-MEL-28 melanoma): 14.3 µM | TGI (SK-MEL-28 melanoma): 30.2 µM | GI50 (SF-268 CNS): 5.33 µM | TGI (SF-268 CNS): 29.9 µM | GI50 (HT29 colon): 1880 nM | TGI (HT29 colon): 3.66 µM | GI50 (MDA-MB-231 breast): 2870 nM | TGI (MDA-MB-231 breast): 8.68 µM | GI50 (M14 melanoma): 9.16 µM | TGI (M14 melanoma): 25.5 µM | GI50 (PC-3 prostate): 6.7 µM | TGI (PC-3 prostate): 28.9 µM | GI50 (NCI-H460 lung): 3.95 µM | TGI (NCI-H460 lung): > 100 µM | GI50 (MDA-MB-435): 13.6 µM | TGI (MDA-MB-435): 37.5 µM | GI50 (UACC-257 melanoma): 14.9 µM | TGI (UACC-257 melanoma): 42.7 µM | GI50 (ACHN renal): 1970 nM | TGI (ACHN renal): 4.11 µM | GI50 (NCI-H522 lung): 2790 nM | TGI (NCI-H522 lung): 14.9 µM | GI50 (786-0 renal): 3.68 µM | TGI (786-0 renal): 15.4 µM | GI50 (SR leukemia): 1540 nM | TGI (SR leukemia): 4.58 µM | GI50 (HCC-2998 colon): 5.39 µM | TGI (HCC-2998 colon): 24.2 µM | GI50 (OVCAR-5 ovarian): 2650 nM | TGI (OVCAR-5 ovarian): 10.2 µM | GI50 (K-562 leukemia): 445 nM | TGI (K-562 leukemia): 11.8 µM | GI50 (SF-295 CNS): 6.21 µM | TGI (SF-295 CNS): 25.4 µM | GI50 (OVCAR-8 ovarian): 2910 nM | TGI (OVCAR-8 ovarian): > 100 µM | GI50 (NCI/ADR-RES ovarian): 2300 nM | TGI (NCI/ADR-RES ovarian): 6 µM | GI50 (SF-539 CNS): 1720 nM | TGI (SF-539 CNS): 3.27 µM | GI50 (BT-549 breast): 5.99 µM | TGI (BT-549 breast): 49 µM | GI50 (T-47D breast): 5.99 µM | TGI (T-47D breast): 33 µM | GI50 (SN12C renal): 2050 nM | TGI (SN12C renal): 5.32 µM | GI50 (IGROV1 ovarian): 2800 nM | TGI (IGROV1 ovarian): 12.7 µM | GI50 (CAKI-1 renal): 4.55 µM | TGI (CAKI-1 renal): 23.9 µM | GI50 (MOLT-4 leukemia): 2300 nM | TGI (MOLT-4 leukemia): 7.68 µM | GI50 (HOP-62 NSCLC): 2620 nM | TGI (HOP-62 NSCLC): > 100 µM
